#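 At the GI50, growth is halved. The concentration for full growth arrest is given as TGI.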
# Legend:
# Test in all cases: NCI-60 cell line screen, 384-well format
# 786-0 renal = test system: 786-0 renal
# A498 renal = test system: A498 renal
# A549 NSCLC = test system: A549 NSCLC
# ACHN renal = test system: ACHN renal
# BT-549 breast = test system: BT-549 breast
# CAKI-1 renal = test system: CAKI-1 renal
# CCRF-CEM leukemia = test system: CCRF-CEM leukemia
# COLO 205 colon = test system: COLO 205 colon
# DU-145 prostate = test system: DU-145 prostate
# EKVX NSCLC = test system: EKVX NSCLC
# HCC-2998 colon = test system: HCC-2998 colon
# HCT-116 colon = test system: HCT-116 colon
# HCT-15 colon = test system: HCT-15 colon
# HL-60(TB) leukemia = test system: HL-60(TB) leukemia
# HOP-62 NSCLC = test system: HOP-62 NSCLC
# HOP-92 NSCLC = test system: HOP-92 NSCLC
# HS 578T breast = test system: HS 578T breast
# HT29 colon = test system: HT29 colon
# IGROV1 ovarian = test system: IGROV1 ovarian
# KM12 colon = test system: KM12 colon
# LOX IMVI melanoma = test system: LOX IMVI melanoma
# M14 melanoma = test system: M14 melanoma
# MALME-3M melanoma = test system: MALME-3M melanoma
# MCF7 breast = test system: MCF7 breast
# MDA-MB-231 breast = test system: MDA-MB-231 breast
# MDA-MB-435 melanoma = test system: MDA-MB-435 melanoma
# MDA-MB-468 breast = test system: MDA-MB-468 breast
# MOLT-4 leukemia = test system: MOLT-4 leukemia
# NCI-H226 lung = test system: NCI-H226 lung
compound,measurement,setting,value
C[C@H](Nc1ncnc2nc[nH]c12)c1cc2cccc(Cl)c2c(=O)n1-c1ccccc1,GI50,786-0 renal,2800 nM
same,TGI,786-0 renal,> 64.9 µM
same,GI50,A498 renal,1090 nM
same,TGI,A498 renal,12.8 µM
same,GI50,A549 NSCLC,14.5 µM
same,TGI,A549 NSCLC,> 90.4 µM
same,GI50,ACHN renal,16.8 µM
same,TGI,ACHN renal,> 100 µM
same,GI50,BT-549 breast,1290 nM
same,TGI,BT-549 breast,36.6 µM
same,GI50,CAKI-1 renal,4.09 µM
same,TGI,CAKI-1 renal,> 80 µM
same,GI50,CCRF-CEM leukemia,4.6 µM
same,TGI,CCRF-CEM leukemia,90.7 µM
same,GI50,COLO 205 colon,42.8 µM
same,TGI,COLO 205 colon,> 100 µM
same,GI50,DU-145 prostate,24.6 µM
same,TGI,DU-145 prostate,> 100 µM
same,GI50,EKVX NSCLC,15.2 µM
same,TGI,EKVX NSCLC,> 100 µM
same,GI50,HCC-2998 colon,29.7 µM
same,TGI,HCC-2998 colon,92.1 µM
same,GI50,HCT-116 colon,28.7 µM
same,TGI,HCT-116 colon,> 100 µM
same,GI50,HCT-15 colon,35.2 µM
same,TGI,HCT-15 colon,> 100 µM
same,GI50,HL-60(TB) leukemia,3.53 µM
same,TGI,HL-60(TB) leukemia,> 36.4 µM
same,GI50,HOP-62 NSCLC,30.7 µM
same,TGI,HOP-62 NSCLC,> 100 µM
same,GI50,HOP-92 NSCLC,2310 nM
same,TGI,HOP-92 NSCLC,77.7 µM
same,GI50,HS 578T breast,3.41 µM
same,TGI,HS 578T breast,27.7 µM
same,GI50,HT29 colon,18.8 µM
same,TGI,HT29 colon,> 100 µM
same,GI50,IGROV1 ovarian,2430 nM
same,TGI,IGROV1 ovarian,10.2 µM
same,GI50,KM12 colon,43.2 µM
same,TGI,KM12 colon,> 100 µM
same,GI50,LOX IMVI melanoma,32.5 µM
same,TGI,LOX IMVI melanoma,> 100 µM
same,GI50,M14 melanoma,23.9 µM
same,TGI,M14 melanoma,> 100 µM
same,GI50,MALME-3M melanoma,6.18 µM
same,TGI,MALME-3M melanoma,49.8 µM
same,GI50,MCF7 breast,4.31 µM
same,TGI,MCF7 breast,> 100 µM
same,GI50,MDA-MB-231 breast,25.5 µM
same,TGI,MDA-MB-231 breast,> 100 µM
same,GI50,MDA-MB-435 melanoma,> 100 µM
same,TGI,MDA-MB-435 melanoma,> 100 µM
same,GI50,MDA-MB-468 breast,1230 nM
same,TGI,MDA-MB-468 breast,14.9 µM
same,GI50,MOLT-4 leukemia,2370 nM
same,TGI,MOLT-4 leukemia,12.5 µM
same,GI50,NCI-H226 lung,33.4 µM
same,TGI,NCI-H226 lung,> 100 µM

# Reference: PubChem BioAssay (NCI)
